Experimental data reported in PubChem BioAssay (NCI).
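Protocol summary: plate cells (96-well), add compound at 5 concentrations, incubate 48 h, interpolate endpoints linearly. TGI is the concentration that stops growth completely.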

What was measured:
Assay in all cases: NCI tumour cell line growth inhibition, 48 h
786-0 renal = test system: 786-0 renal
A498 renal = test system: A498 renal
A549 NSCLC = test system: A549 NSCLC
ACHN renal = test system: ACHN renal
BT-549 breast = test system: BT-549 breast
CAKI-1 renal = test system: CAKI-1 renal
CCRF-CEM leukemia = test system: CCRF-CEM leukemia
COLO 205 colon = test system: COLO 205 colon
DU-145 prostate = test system: DU-145 prostate
EKVX NSCLC = test system: EKVX NSCLC
HCC-2998 colon = test system: HCC-2998 colon
HCT-116 colon = test system: HCT-116 colon
HCT-15 colon = test system: HCT-15 colon
HL-60(TB) leukemia = test system: HL-60(TB) leukemia
HOP-62 NSCLC = test system: HOP-62 NSCLC
HOP-92 NSCLC = test system: HOP-92 NSCLC
HT29 colon = test system: HT29 colon
IGROV1 ovarian = test system: IGROV1 ovarian
K-562 leukemia = test system: K-562 leukemia
KM12 colon = test system: KM12 colon
LOX IMVI melanoma = test system: LOX IMVI melanoma
M14 melanoma = test system: M14 melanoma
MALME-3M melanoma = test system: MALME-3M melanoma
MCF7 breast = test system: MCF7 breast
MDA-MB-231 breast = test system: MDA-MB-231 breast
MDA-MB-435 = test system: MDA-MB-435
MOLT-4 leukemia = test system: MOLT-4 leukemia
NCI-H226 lung = test system: NCI-H226 lung
NCI-H23 lung = test system: NCI-H23 lung
NCI-H460 lung = test system: NCI-H460 lung
NCI/ADR-RES ovarian = test system: NCI/ADR-RES ovarian
OVCAR-4 ovarian = test system: OVCAR-4 ovarian
OVCAR-5 ovarian = test system: OVCAR-5 ovarian
OVCAR-8 ovarian = test system: OVCAR-8 ovarian
PC-3 prostate = test system: PC-3 prostate
SF-268 CNS = test system: SF-268 CNS
SF-295 CNS = test system: SF-295 CNS
SF-539 CNS = test system: SF-539 CNS
SK-MEL-2 melanoma = test system: SK-MEL-2 melanoma
SK-MEL-28 melanoma = test system: SK-MEL-28 melanoma
SK-MEL-5 melanoma = test system: SK-MEL-5 melanoma
SK-OV-3 ovarian = test system: SK-OV-3 ovarian
SN12C renal = test system: SN12C renal
SNB-19 CNS = test system: SNB-19 CNS
SNB-75 CNS = test system: SNB-75 CNS
SW-620 colon = test system: SW-620 colon
TK-10 renal = test system: TK-10 renal
U251 CNS = test system: U251 CNS
UACC-257 melanoma = test system: UACC-257 melanoma
UO-31 renal = test system: UO-31 renal

Measured: TGI

CC(=O)Oc1cc2c(n(C)c1=O)CCC2
> 100 µM: all assays above
